Reference: publication PMC4667195, “Tumor-selective peptide-carrier delivery of Paclitaxel increases in vivo activity of the drug” (Scientific Reports, 2015)

Key:
[1] = test system: MDA-MB 231 human breast adenocarcinoma cells; test: Cytotoxicity (MTT growth inhibition) in MDA-MB 231; assay type: cell-based; conditions: 1 h incubation, wash, then 6 days at 37 °C without drug, 128 pM to 10 μM, performed twice in triplicate
Method: (§1) Growth inhibition was assessed by 3-(4,5-dimethylthiazol-2-yl)-2,5-diphenyltetrazolium bromide (MTT). […] The experiment was performed twice in triplicate.
(§2) EC50 values were calculated by non-linear regression analysis using Graph Pad Prism 5.03 software.

[2] = test system: SKOV-3 human ovary adenocarcinoma cells; test: Cytotoxicity (MTT growth inhibition) in SKOV-3; assay type: cell-based; conditions: SK-OV-3, 1 h incubation, wash, then 6 days at 37 °C without drug, 128 pM to 10 μM, performed twice in triplicate
Method: as §1, §2

[3] = test system: orthotopic MDA-MB 231-luc2 tumors; test: Tumor growth in orthotopic MDA-MB 231-luc2 mouse model; assay type: in vivo, athymic nude mice; conditions: 2.86 μmol/Kg i.v. every 4 days
Method: MDA-MB 231-luc2 cells were injected orthotopically in the mammary fat pads of female athymic nude mice. […] Tumor growth was monitored by measuring volumes every 4 days with a caliber rule and by imaging luciferase reporter expression in tumor cells with a Photon Imager system at 8-day intervals.
Orthotopic breast tumors were established by injecting 1 × 10^6 MDA-MB 231-luc2 cells into the fourth mammary fat pad of athymic nude mice (Harlan Laboratories). Tumor growth was monitored every four days by measuring two perpendicular diameters with caliber. Tumor volume (V) was calculated by the following equation: V = (a^2 × b)/2, where “a” is the width of the tumor (small diameter), and b the length (large diameter), both in millimeters[22].
Treatments were started when the tumors reached at least 80 mm^3 in volume.
Tumor growth was also monitored by imaging luciferase reporter expression in tumor cells. To track MDA-MB 231-luc2 cells, bioluminescent optical imaging was performed using a Photon Imager system (Biospace Lab, Paris, France) including a cooled charge-coupled device (CCD) camera. Prior to imaging, mice were anaesthetized by intraperitoneal (i.p.) injection of 275 mg/kg Avertin. […] Bioluminescence was quantified by automatic measurement. ROI optical images were analyzed with M3 Vision software (Biospace Lab, Paris, France).

## CC(=O)O[C@H]1C(=O)[C@@]2(C)[C@H]([C@H](OC(=O)c3ccccc3)[C@]3(O)C[C@H](OC(=O)[C@H](O)[C@@H](NC(=O)c4ccccc4)c4ccccc4)C(C)=C1C3(C)C)[C@]1(OC(C)=O)CO[C@@H]1C[C@@H]2O [PTX, Paclitaxel]
[1]
  EC50: 62 nM
[2]
  EC50: 29 nM
[3]; days 4, 8, 12 and 16, n = 5 mice
  Slope of average tumor volume (percentage of the volume at day 4) versus time: 5.5
[3]; during treatment, days 4 to 16
  Effect on tumor growth (in words): clear reduction in tumor growth with respect to controls, but not tumor regression
